Experimental data as given in patent US20140088006A1, “Stem Cell Mobilization and Tissue Repair and Regeneration” (Wellstat Therapeutics Corporation, priority 2011, published 2014).
Values joined by “and” are separate entries in the source; they are usually repeats but may differ in a detail not shown here. Equal values may be shown once. No end group written: not given here.

Tests used:
[1] = test system: CFU-GEMM progenitor cells; test: Mobilization of CFU-GEMM in diabetic db/db mice; type: in vivo
[2] = test system: white blood cells in peripheral blood; test: White blood cell count after 4 daily injections of G-CSF and Compound X; type: in vivo, mice; conditions: 5 μg/mouse each agent s.c. daily for 4 days, pooled blood
Experimental: Compound X and Neupogen (rG-CSF Amgen, lot# P043601) were diluted in PBS. Mice received subcutaneous injections of PBS, Compound X (5 μg/mouse), G-CSF (5 μg/mouse) or Compound X (5 μg/mouse)+G-CSF (5 μg/mouse) for four consecutive days. On the last day of injections, 1 hour post injections, blood was collected through the orbital sinus with heparinized capillary tubes. Blood was pooled from 3 mice/group and white blood cell counts were obtained. Mononuclear cells were isolated by density gradient separation from pooled blood. Cells were washed, counted and plated at 100,000 per dish (5 dishes/group) for CFU-mix and CFU-GM colonies. Blood was also collected and processed on day 8 for colony assay. Results are shown in Tables 10, 11, and 12 and in FIG. 5.

[3] = test system: spleen cells; test: Flow cytometry analysis of stem cell phenotypes in spleens on day 7; type: in vivo, mice; conditions: 250 μg/kg
[4] = test system: streptozotocin-induced diabetic mice; test: STZ diabetes model; type: in vivo, C57BL/6 female mice
Experimental: In order to look at the ability of Compound X mobilized stem cells to mediate tissue regeneration in vivo subcutaneous injections of 250 μg/kg of Compound X were compared with the ability of Compound X treated bone marrow cells to regenerate pancreas in a streptozoticin-induced diabetic model. Streptozotocin (STZ) is an antibiotic that preferentially kills the insulin secreting beta cells in pancreas. STZ-induced diabetes is a widely used model of pancreatic insufficiency.
Streptozotocin was dissolved and diluted into citric acid buffer (pH 4.5) immediately before injections. Drinking water and food were removed for 6 hours from 8-week old C57BL/6 female mice (Charles River) before mice were given a single intraperitoneal dose of 150 mg/kg STZ (Day −4). Blood for glucose determination was obtained from the tail vein four days post STZ. Blood glucose was measured by using an Elite glucometer (Bayer). Mice were considered diabetic if their blood glucose was >300 mg/dL. Mice showing >300 mg/dL blood glucose were randomized and divided into 5 groups of 10 mice (day 0). […]
After 96 hours of expansion, cells were harvested and processed for fluorescence activated cell sorting (FACS). […] Stained cells were excited with laser 2 (488 nm) and fluorescence emission was detected using the following optical filters, FL-3 (PerCP-Cy5.5) 695/BP40, FL-2 (phycoerythrin) 585/BP42 and FL-1 (FITC) 530/BP30. […]

[5] = test system: HSC and HPC; test: CFU-GM / CFU-GEMM colony assay after 4 daily injections of G-CSF and Compound X; type: in vivo, mice; conditions: for CFU-GEMM numbers, MEAN / CFU-GM numbers, MEAN / CFU-GEMM numbers / CFU-GM numbers: 5 μg/mouse each agent s.c. daily for 4 days; for CFU-GEMM numbers / CFU-GM numbers: individual dishes; for Fold increase in number of CFU-GM / Fold increase in number of CFU-Mix (CFU-GEMM): multiple injections, 5 μg/mouse each agent
Experimental: Compound X and Neupogen (rG-CSF Amgen, lot# P043601) were diluted in PBS. Mice received subcutaneous injections of PBS, Compound X (5 μg/mouse), G-CSF (5 μg/mouse) or Compound X (5 μg/mouse)+G-CSF (5 μg/mouse) for four consecutive days. […] Mononuclear cells were isolated by density gradient separation from pooled blood. […] Blood was also collected and processed on day 8 for colony assay. Results are shown in Tables 10, 11, and 12 and in FIG. 5.

[6] = test system: full-thickness cutaneous wounds; test: Excisional wound healing model in db/db mice; type: in vivo; conditions: i.v. 5 mg/kg daily for 4 days, Day 4

## FPHFDLSHGSAQV [Compound X, tridecapeptide that acts on stem cells]
[1]; intravenous 5 mg/kg, one-hour post injection
  increase of CFU-GEMM number in peripheral blood vs Vehicle or 250 ug/kg: > 3 times
[1]; subcutaneous, doses as high as 5 mg/kg
  mobilization of progenitor cells into the peripheral blood: failed to mobilize
[2]; Day 4, 1 hour post injection
  White Blood Cell counts: Cell Count: 7.3 ×10^6
[2]; Day 8
  White Blood Cell counts: Cell Count: 6.1 ×10^6
[3]
  accumulation of cells with stem cell phenotypes in the spleens: No accumulation
[3]; spleen
  CD34+ Flk-1+, Mean: 0.03
  CD34+ Flk-1−, Mean: 0.05
  CD34− Flk-1+, Mean: 0.38
  CD150+ CD48−, Mean: 0.17
  CD244+ CD48+, Mean: 0.78
  Lin− Kit+ Sca-1+, Mean: 0.07
  Lin− Kit+ Sca-1−, Mean: 0.50
  Lin− Kit^low Sca-1+, Mean: 0.17
[4]; s.c. 250 μg/kg for 5 consecutive days for 3 weeks, STZ 150 mg/kg
  Survival of STZ treated mice: 100%
[4]; s.c. 250 μg/kg stem cell mobilizing doses
  mice with substantial weight loss: No mice
[5]; Day 4
  CFU-GEMM numbers, MEAN: 2.4 per 100000 mononuclear cells
  CFU-GM numbers, MEAN: 9.6 per 100000 mononuclear cells
  CFU-GEMM numbers: 3 per 100000 mononuclear cells (2×) and 0 per 100000 mononuclear cells and 4 per 100000 mononuclear cells and 2 per 100000 mononuclear cells
  CFU-GM numbers: 7 per 100000 mononuclear cells and 6 per 100000 mononuclear cells and 13 per 100000 mononuclear cells and 11 per 100000 mononuclear cells (2×)
  Fold increase in number of CFU-GM: 1.9 Fold
[5]; Day 8
  CFU-GEMM numbers, MEAN: 0.6 per 100000 mononuclear cells
  CFU-GM numbers, MEAN: 0.6 per 100000 mononuclear cells
  CFU-GEMM numbers: 1 per 100000 mononuclear cells (3×) and 0 per 100000 mononuclear cells (2×)
  CFU-GM numbers: 1 per 100000 mononuclear cells (3×) and 0 per 100000 mononuclear cells (2×)
  Fold increase in number of CFU-GM: 0 Fold
  Fold increase in number of CFU-Mix (CFU-GEMM): 0 Fold
[5]; 5 μg/mouse s.c. daily for 4 days, day 8
  number of CFU-GEMM or CFU-GM: no difference found
[5]; Day 4, 1 hr after the last injection
  Fold increase in number of CFU-Mix (CFU-GEMM): 1.7 Fold
[6]
  Wound healing rate, Average: 5.14%
[6]; individual mice, 5 mg/kg
  Wound healing rate: 3.89% and 4.69% and 2.42% and 8.09% and 6.62%
